pIC50: −log10 of the molar value.
Tests used:
Type in all cases: cell-based
ACHN CSC = test: Cancer stem cells, Cell Titer-Glo 72 hours (Test Example 3); details: Homo sapiens, ACHN, 72 h
FaDu = test: Bulk cancer cells, Cell Titer-Glo 72 hours (Test Example 2); details: Homo sapiens
Procedure: (§1) Tubes of 3× drug (60 uM in 500 uL complete media) were prepared from 5 mM stock solutions in DMSO. […] To treat cells, 50 uL of drug from the dilution plate was removed and added to the cell plates. […] Cells were harvested 72 hours after drug addition using Cell Titer-Glo (Promega) and luminescence measured on a plate reader.

ACHN = test: as above; details: Homo sapiens, ACHN, 72 h
Procedure: as §1

A549 = test: as above; details: Homo sapiens
Procedure: as §1

FaDu CSC = test: Cancer stem cells, Cell Titer-Glo 72 hours (Test Example 3); details: Homo sapiens, FaDu, 72 h
A549 CSC = test: as above; details: Homo sapiens

| Compound | pIC50 (ACHN CSC) | pIC50 (FaDu) | pIC50 (ACHN) | pIC50 (A549) | pIC50 (FaDu CSC) | pIC50 (A549 CSC) |
| --- | --- | --- | --- | --- | --- | --- |
| CCN(CC)CCNC(=O)c1c(C)[nH]c(/C=C2\C(=O)Nc3ccc(-c4ncccc4C)cc32)c1C [Example 203] | 5.73 | 5.12 | 5.38 | 5.38 | 4.70 | 4.88 |
| O=C1Nc2ccc(-c3csc(C4CCNCC4)n3)cc2/C1=C/c1cc2c([nH]1)CCCC2 [Example 157] | 5.57 | 4.68 | 4.73 | 5.03 | 4.92 | 4.66 |
| CCN(CC)CCNC(=O)c1c(C)[nH]c(/C=C2\C(=O)Nc3ccc(-c4cnc5ccccc5c4)cc32)c1C [Example 204] | 6.21 | 5.34 | 5.19 | 5.41 | 5.26 | 5.17 |
| O=C1Nc2ccc(-c3csc(-c4ccccc4)n3)cc2/C1=C/c1ncc[nH]1 [Example 150] | 5.54 | 5.12 | 5.84 | 4.76 | 5.60 | 5.64 |
| Cc1cc(C)c(/C=C2\C(=O)Nc3ccc(-c4n[nH]c5ccccc45)cc32)[nH]1 [Example 231] | 5.51 | 5.35 | 5.06 | 5.19 | 5.27 | 5.14 |
| CCN(CC)CCNC(=O)c1c(C)[nH]c(/C=C2\C(=O)Nc3cc(-c4ccc(C(=O)c5ccccc5)cc4)ccc32)c1C [Example 264] | 5.79 | 5.35 | 5.39 | 5.44 | 5.84 | 5.50 |
| CCN(CC)CCNC(=O)c1c(C)[nH]c(/C=C2\C(=O)Nc3ccc(-c4cc(-c5ccccc5)ccn4)cc32)c1C [Example 198] | 6.05 | 5.59 | 5.62 | 5.82 | 5.01 | 5.70 |
| CCN(CC)CCNC(=O)c1c(C)[nH]c(/C=C2\C(=O)Nc3ccc(-c4ccc(OC)cc4C)cc32)c1C [Example 267] | 5.85 | 5.64 | 5.65 | 5.76 | 5.85 | 5.34 |
| CCN(CC)CCNC(=O)c1c(C)[nH]c(/C=C2\C(=O)Nc3ccc(-c4csc(C(=O)O)c4)cc32)c1C [Example 202] | 5.89 |  | 5.11 | 5.11 | 4.85 | 4.85 |
| CCN(CC)CCNC(=O)c1c(C)[nH]c(/C=C2\C(=O)Nc3ccc(-c4ccc(-c5ccccc5)nc4)cc32)c1C [Example 194] | 6.20 | 5.31 | 5.13 | 5.64 | 5.40 | 5.19 |
| CCN(CC)CCNC(=O)c1c(C)[nH]c(/C=C2\C(=O)Nc3ccc(-c4ccc5ccccc5n4)cc32)c1C [Example 186] | 6.48 | 6.04 | 5.56 | 5.74 |  | 5.82 |
| CCN(CC)CCNC(=O)c1c(C)[nH]c(/C=C2\C(=O)Nc3ccc(-c4ccccn4)cc32)c1C [Example 183] | 5.97 | 5.59 | 5.65 | 5.14 | 6.74 | 5.26 |
| CCN(CC)CCNC(=O)c1c(C)[nH]c(/C=C2\C(=O)Nc3ccc(-c4cnc5cccnn45)cc32)c1C [Example 179] | 5.56 | 5.76 | 5.44 | 5.44 | 7.22 | 5.18 |
| CCN(CC)CCNC(=O)c1c(C)[nH]c(/C=C2\C(=O)Nc3ccc(-c4cnc5ccccc5n4)cc32)c1C [Example 185] | 5.25 | 5.58 | 5.24 | 5.09 | 7.40 | 4.37 |
| CCN(CC)CCNC(=O)c1c(C)[nH]c(/C=C2\C(=O)Nc3ccc(-c4csc(-n5cccn5)n4)cc32)c1C [Example 195] | 6.21 | 5.33 | 5.10 | 5.43 | 5.29 | 5.18 |
| CCN(CC)CCNC(=O)c1c(C)[nH]c(/C=C2\C(=O)Nc3ccc(-c4ccc(OC)cn4)cc32)c1C [Example 188] | 5.97 | 5.15 | 5.19 | 4.97 | 6.80 | 5.05 |
| Cc1[nH]c(/C=C2\C(=O)Nc3ccc(-c4ccc(-c5ccccc5)s4)cc32)c(C)c1C(=O)N1CCOCC1 [Example 11] | 6.64 | 4.68 | 4.89 | 4.99 | 5.61 | 4.96 |
| CCN(CC)CCNC(=O)c1c(C)[nH]c(/C=C2\C(=O)Nc3cc(-c4cnc5ccccc5c4)ccc32)c1C [Example 257] | 5.97 | 4.89 |  | 4.80 | 5.55 | 4.93 |
